Literature values in article PMC10723152 (Proceedings of the National Academy of Sciences of the …, 2023).

Tested on: cynomolgus macaques
Details: adult male cynomolgus macaques, 2 Gy sublethal whole-body irradiation

Substance: recombinant hGH: recombinant human Growth Hormone, biologic compared from the authors' previous work
- hematopoietic recovery: enhanced hematopoietic recovery
